Results as given in ChEMBL document CHEMBL1146791, “Synthesis of nitrated indenoisoquinolines as topoisomerase I inhibitors” (2004).

Columns and labels:
[1] = tested on: DU-145; experiment: Cytotoxicity against DU-145 human prostate cancer cell line was determined; format: functional
[2] = target: T1, DNA topoisomerase 1 (Homo sapiens) (UniProt P11387); experiment: Inhibitory activity against DNA topoisomerase I cleavage was determined at a concentration ranging up to 10uM; '+' indicates weak activity
T1 sequence (whole entry): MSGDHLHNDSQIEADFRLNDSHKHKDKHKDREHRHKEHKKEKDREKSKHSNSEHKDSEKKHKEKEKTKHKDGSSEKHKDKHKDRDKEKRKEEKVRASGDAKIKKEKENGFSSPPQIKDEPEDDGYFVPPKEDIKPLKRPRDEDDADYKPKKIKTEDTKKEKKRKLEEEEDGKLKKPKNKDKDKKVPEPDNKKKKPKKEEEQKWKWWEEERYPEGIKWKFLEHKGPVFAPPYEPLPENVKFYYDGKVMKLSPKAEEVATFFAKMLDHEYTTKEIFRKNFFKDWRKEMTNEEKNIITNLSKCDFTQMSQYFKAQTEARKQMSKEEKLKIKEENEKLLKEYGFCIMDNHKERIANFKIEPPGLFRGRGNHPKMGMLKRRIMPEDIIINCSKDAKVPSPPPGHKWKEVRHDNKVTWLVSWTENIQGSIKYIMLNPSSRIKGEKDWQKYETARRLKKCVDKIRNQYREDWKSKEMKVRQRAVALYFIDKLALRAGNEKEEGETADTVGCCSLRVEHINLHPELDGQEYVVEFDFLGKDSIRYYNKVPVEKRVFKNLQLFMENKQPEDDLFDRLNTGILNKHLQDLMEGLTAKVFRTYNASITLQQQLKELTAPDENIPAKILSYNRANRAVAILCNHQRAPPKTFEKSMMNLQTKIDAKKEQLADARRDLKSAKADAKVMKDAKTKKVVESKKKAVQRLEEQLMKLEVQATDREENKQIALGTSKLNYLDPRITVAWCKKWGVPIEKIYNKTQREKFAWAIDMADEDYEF

[3] = tested on: HCT-116; experiment: Cytotoxicity against HCT116 human colon cancer cell line was determined; format: functional
[4] = tested on: HOP-62; experiment: Cytotoxicity against HOP-62 human lung cancer cell line was determined; format: functional
[5] = tested on: MDA-MB-435; experiment: Cytotoxicity against MDA-MB-435 human breast cancer cell line was determined; format: functional
[6] = tested on: OVCAR-3; experiment: Cytotoxicity against OVCAR-3 human ovarian cancer cell line was determined; format: functional
[7] = tested on: SN12C; experiment: Cytotoxicity against SN12C human renal cancer cell line was determined; format: functional
[8] = tested on: UACC-62; experiment: Cytotoxicity against UACC-62 human melanoma cancer cell line was determined; format: functional
[9] = target: T1, DNA topoisomerase 1 (Homo sapiens); experiment: Inhibitory activity against DNA topoisomerase I cleavage was determined at a concentration ranging up to 10 uM; ''+++'' indicates greater activity than the parent compound 25; design: scale not given here
[10] = target: T1, DNA topoisomerase 1 (Homo sapiens); experiment: Inhibitory activity against DNA topoisomerase I cleavage was determined at a concentration ranging up to 10 uM; ''+/-'' No description in the article
[11] = tested on: SF-268; experiment: Cytotoxicity against SF-268 human CNS cancer cell line was determined; format: functional
[12] = target: T1, DNA topoisomerase 1 (Homo sapiens); experiment: Inhibitory activity against DNA topoisomerase I cleavage was determined at a concentration ranging uM camptothecin
[13] = target: T1, DNA topoisomerase 1 (Homo sapiens); experiment: Inhibitory activity against DNA topoisomerase I cleavage was determined at a concentration ranging up to 10 uM; NT- Not tested
[14] = target: T1, DNA topoisomerase 1 (Homo sapiens); experiment: Inhibitory activity against DNA topoisomerase I cleavage was determined at a concentration ranging up to 10 uM

Row | SMILES | GI50 [1] [nM] | Activity [2] | GI50 [3] [nM] | GI50 [4] [nM] | GI50 [5] [nM] | GI50 [6] [nM] | GI50 [7] [nM] | GI50 [8] [nM] | Activity [9] | Activity [10] | GI50 [11] [nM] | Activity [12] | Activity [13] | Activity [14]
1 | COc1cc2c(cc1OC)[C@H]1C(=O)c3cc4c(cc3[C@H]1N(CCCBr)C2=O)OCO4 | 30 | weak activity | 70 | 120 | 150 | 400 | 30 | 50 | – | – | – | – | – | –
2 | COc1cc2c3c(n(CCCN)c(=O)c2cc1OC)-c1cc2c(cc1C3=O)OCO2 | – | – | – | – | – | – | – | – | ++ | – | – | – | – | –
3 | NCCCn1c2c(c3ccccc3c1=O)C(=O)c1ccccc1-2 | 220 | – | 180 | – | 780 | 1380 | 160 | 260 | ++ | – | – | – | – | –
4 | O=C1c2ccccc2-c2c1c1ccccc1c(=O)n2CCCBr | – | – | – | – | – | – | – | – | – | +/- | 4610 | – | – | –
5 | COc1cc2c3c(n(C)c(=O)c2cc1OC)-c1cc2c(cc1C3=O)OCO2 | 37000 | – | 35000 | 1300 | 96000 | – | 68000 | 4200 | – | – | – | – | – | –
6 | O=C1c2cc3c(cc2[C@@H]2[C@H]1c1ccc([N+](=O)[O-])cc1C(=O)N2CCCCl)OCO3 | < 10 | weak activity | < 10 | < 10 | < 10 | < 10 | < 10 | < 10 | – | – | < 10 | – | – | –
7 | NCCCn1c2c(c3ccc([N+](=O)[O-])cc3c1=O)C(=O)c1ccccc1-2 | 148 | – | 85 | 275 | – | – | 102 | 372 | – | – | 302 | – | – | –
8 | CN1C(=O)c2cc([N+](=O)[O-])ccc2[C@H]2C(=O)c3cc4c(cc3[C@H]21)OCO4 | 50 | – | 14 | 158 | 107 | 30 | 33 | 26 | ++ | – | 24 | – | – | –
9 | NCCCn1c2c(c3ccccc3c1=O)C(=O)c1cc3c(cc1-2)OCO3 | – | weak activity | – | – | – | – | – | – | – | – | – | – | – | –
10 | O=C1c2cc3c(cc2[C@@H]2[C@H]1c1ccc([N+](=O)[O-])cc1C(=O)N2CCCBr)OCO3 | < 10 | weak activity | < 10 | < 10 | < 10 | < 10 | < 10 | < 10 | – | – | < 10 | – | – | –
11 | O=C1c2ccccc2-c2c1c1ccc([N+](=O)[O-])cc1c(=O)n2CCCCl | 40700 | – | 3630 | 43700 | 31600 | 4900 | 26900 | 20400 | – | – | 23400 | – | – | –
12 | [N-]=[N+]=NCCCn1c2c(c3ccc([N+](=O)[O-])cc3c1=O)C(=O)c1cc3c(cc1-2)OCO3 | < 10 | – | < 10 | < 10 | < 10 | < 10 | < 10 | < 10 | – | – | < 10 | +++ | – | –
13 | O=C1c2ccccc2-c2c1c1ccc([N+](=O)[O-])cc1c(=O)n2CCCBr | > 100000 | – | 3450 | – | > 100000 | > 100000 | > 100000 | > 100000 | – | – | > 100000 | – | 0 | –
14 | NCCCn1c2c(c3ccc([N+](=O)[O-])cc3c1=O)C(=O)c1cc3c(cc1-2)OCO3 | < 10 | – | < 10 | < 10 | 25 | 302 | < 10 | 17 | – | – | < 10 | +++ | – | –
15 | [N-]=[N+]=NCCCn1c2c(c3ccccc3c1=O)C(=O)c1ccccc1-2 | 44700 | – | 4900 | 7590 | 7760 | 7940 | 25100 | 19500 | – | – | – | – | – | –
16 | Nc1ccc2c3c(n(CCCCl)c(=O)c2c1)-c1cc2c(cc1C3=O)OCO2 | – | – | – | – | > 100000 | > 100000 | > 100000 | > 100000 | – | – | > 100000 | – | – | 0
17 | O=C1c2cc3c(cc2-c2c1c1ccc([N+](=O)[O-])cc1c(=O)n2CCCCl)OCO3 | 98 | – | 2400 | 410 | 1820 | 9120 | 132 | 229 | ++ | – | 148 | – | – | –
18 | [N-]=[N+]=NCCCn1c2c(c3ccc([N+](=O)[O-])cc3c1=O)C(=O)c1ccccc1-2 | > 100000 | – | 8130 | > 100000 | > 100000 | – | 72400 | 44700 | – | – | 79400 | – | – | –
